One assay has as its target T1, Endothelin-1 receptor (Homo sapiens, UniProt P25101). Also: in other assays of this panel Not Active means under 50% inhibition at 10 µM.
T1 sequence (P25101 whole entry): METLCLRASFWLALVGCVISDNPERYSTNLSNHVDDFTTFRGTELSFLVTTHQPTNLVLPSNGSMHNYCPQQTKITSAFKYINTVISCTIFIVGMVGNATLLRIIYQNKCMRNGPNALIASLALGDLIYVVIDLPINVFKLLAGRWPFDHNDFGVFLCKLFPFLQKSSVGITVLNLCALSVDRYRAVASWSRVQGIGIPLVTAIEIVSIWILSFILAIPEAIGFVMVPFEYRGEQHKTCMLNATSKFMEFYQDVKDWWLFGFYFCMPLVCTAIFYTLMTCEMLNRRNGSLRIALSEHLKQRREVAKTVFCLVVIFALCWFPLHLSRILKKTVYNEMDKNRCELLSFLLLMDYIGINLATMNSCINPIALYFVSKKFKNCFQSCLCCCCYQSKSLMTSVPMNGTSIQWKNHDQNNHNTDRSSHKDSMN
The class given is cell membranes, Membrane. To be noted: cho-k1.

For another assay, the target named is Histamine H2 receptor (Homo sapiens, UniProt P25021). The class given is cell membranes, CHO-K1, Membrane. Particulars: cho-k1. Also: in other assays of this panel Not Active means under 50% inhibition at 10 µM.
Assay [1] in a line: DRUGMATRIX: Imidazoline I2, Central radioligand binding (ligand: [3H] Idazoxan). The class given is cell membranes, Rattus norvegicus, Wistar, Cerebral cortex, Membrane. To be noted: Not Active = under 50% inhibition at 10 µM.
Assay [2] addresses T2, Cysteinyl leukotriene receptor 1 (Homo sapiens, UniProt Q9Y271).
T2 sequence (Q9Y271 whole entry): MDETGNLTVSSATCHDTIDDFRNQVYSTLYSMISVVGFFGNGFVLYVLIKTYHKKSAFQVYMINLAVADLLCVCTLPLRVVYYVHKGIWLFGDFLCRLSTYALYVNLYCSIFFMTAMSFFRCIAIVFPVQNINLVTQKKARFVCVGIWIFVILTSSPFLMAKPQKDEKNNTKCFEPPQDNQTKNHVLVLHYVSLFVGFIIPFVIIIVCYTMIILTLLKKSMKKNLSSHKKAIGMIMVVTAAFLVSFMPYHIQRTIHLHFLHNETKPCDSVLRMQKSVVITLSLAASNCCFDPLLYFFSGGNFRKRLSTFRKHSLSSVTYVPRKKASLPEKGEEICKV
The class given is cell membranes, CHO-K1, Membrane. To be noted: cho-k1.

Assay [3] concerns the target T3, Muscarinic acetylcholine receptor M4 (Homo sapiens, UniProt P08173). Also: in other assays of this panel Not Active means under 50% inhibition at 10 µM.
T3 sequence (P08173 whole entry): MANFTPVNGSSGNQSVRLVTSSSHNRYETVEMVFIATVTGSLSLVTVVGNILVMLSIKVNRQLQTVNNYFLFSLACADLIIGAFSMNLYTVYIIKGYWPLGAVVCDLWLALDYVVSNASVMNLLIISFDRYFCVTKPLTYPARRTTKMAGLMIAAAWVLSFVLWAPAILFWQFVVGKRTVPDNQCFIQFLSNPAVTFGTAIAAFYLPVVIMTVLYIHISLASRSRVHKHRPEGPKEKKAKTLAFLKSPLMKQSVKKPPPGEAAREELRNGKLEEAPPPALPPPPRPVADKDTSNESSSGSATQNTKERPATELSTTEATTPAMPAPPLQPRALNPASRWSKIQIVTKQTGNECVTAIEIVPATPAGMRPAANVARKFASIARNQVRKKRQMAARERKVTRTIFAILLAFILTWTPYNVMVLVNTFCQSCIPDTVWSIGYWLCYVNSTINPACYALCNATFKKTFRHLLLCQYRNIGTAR
The class given is cell membranes, CHO-K1, Membrane. Particulars: cho-k1.

The target of assay [4] is Tyrosine-protein kinase Fyn (Homo sapiens, UniProt P06241). In words: biochemical. To be noted: for IC50: insect cells. The class given is cell-based, Insect cells.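 As to all read-outs here: enzymatic inhibition of Fyn kinase activity measured with Poly(Glu:Tyr) as the phosphorylation substrate; in other assays of this panel Not Active means under 50% inhibition at 10 µM.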

For 20 compounds, IC50 and Ki results are on record in ChEMBL document CHEMBL1909046, “DrugMatrix in vitro pharmacology data”.

pIC50: −log10 of the molar value.

Sequence of Histamine H2 receptor (P25021 whole entry): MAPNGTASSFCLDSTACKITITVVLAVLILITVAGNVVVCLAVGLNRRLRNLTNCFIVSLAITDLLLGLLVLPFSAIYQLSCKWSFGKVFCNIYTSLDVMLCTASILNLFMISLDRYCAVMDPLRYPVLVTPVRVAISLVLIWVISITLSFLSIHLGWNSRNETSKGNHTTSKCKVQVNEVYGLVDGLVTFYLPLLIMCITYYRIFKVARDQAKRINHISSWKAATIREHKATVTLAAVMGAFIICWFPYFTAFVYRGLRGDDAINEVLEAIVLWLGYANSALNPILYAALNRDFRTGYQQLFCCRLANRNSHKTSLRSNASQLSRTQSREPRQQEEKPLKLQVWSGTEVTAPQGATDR
Sequence of Tyrosine-protein kinase Fyn (P06241 whole entry): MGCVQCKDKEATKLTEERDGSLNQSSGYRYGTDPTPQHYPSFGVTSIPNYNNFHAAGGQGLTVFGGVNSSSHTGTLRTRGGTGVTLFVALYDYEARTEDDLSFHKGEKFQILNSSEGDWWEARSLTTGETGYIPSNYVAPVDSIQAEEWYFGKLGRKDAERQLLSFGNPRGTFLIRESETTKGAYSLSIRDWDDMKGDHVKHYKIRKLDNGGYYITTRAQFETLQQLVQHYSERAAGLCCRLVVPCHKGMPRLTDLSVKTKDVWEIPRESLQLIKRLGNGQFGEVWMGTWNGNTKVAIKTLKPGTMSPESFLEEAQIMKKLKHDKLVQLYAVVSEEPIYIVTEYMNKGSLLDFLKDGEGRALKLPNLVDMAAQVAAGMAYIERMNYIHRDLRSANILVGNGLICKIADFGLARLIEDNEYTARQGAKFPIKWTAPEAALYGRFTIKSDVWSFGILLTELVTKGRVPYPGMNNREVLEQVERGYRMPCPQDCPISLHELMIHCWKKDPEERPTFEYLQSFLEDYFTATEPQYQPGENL

Regarding `CC1=C(C(=O)O)N2C(=O)[C@@H](NC(=O)[C@H](N)c3ccccc3)[C@H]2SC1` [CEPHALEXIN ANHYDROUS], the IC50 entry (against Endothelin-1 receptor; against Histamine H2 receptor; in assay [1]; in assay [2]; in assay [3]; in assay [4]) was “Not Active” in each case. In addition, the Ki result in assay [1] is “Not Active”.

Take `O=C(N[C@H](CO)[C@H](O)c1ccc([N+](=O)[O-])cc1)C(Cl)Cl` [CHLORAMPHENICOL]: the IC50 entry (on Endothelin-1 receptor; on Histamine H2 receptor; in assay [1]; in assay [2]; in assay [3]; in assay [4]) was “Not Active” in each case. The Ki entry in assay [1] is reported as “Not Active”.

Regarding `ClC(Cl)Cl` [CHLOROFORM], the IC50 entry (against Endothelin-1 receptor; on Histamine H2 receptor; in assay [1]; in assay [2]; in assay [3]; in assay [4]) was “Not Active” in each case. Moreover, the Ki result in assay [1] is “Not Active”.

`C=C1CC[C@H](O)C/C1=C/C=C1\CCC[C@]2(C)[C@@H]([C@H](C)CCCC(C)C)CC[C@@H]12` [CHOLECALCIFEROL]: the IC50 result (against Endothelin-1 receptor; against Histamine H2 receptor; in assay [1]; in assay [2]; in assay [3]; in assay [4]) was “Not Active” throughout. In addition, the Ki entry in assay [1] is “Not Active”.

As for `C[N+](C)(C)CCO.[Cl-]` [CHOLINE CHLORIDE], the IC50 result (at Endothelin-1 receptor; on Histamine H2 receptor; in assay [1]; in assay [2]; in assay [3]; in assay [4]) was “Not Active” throughout. The Ki result in assay [1] is recorded as “Not Active”.

Turning to `CCOC(=O)C(C)(C)Oc1ccc(Cl)cc1` [CLOFIBRATE], the IC50 result (against Endothelin-1 receptor; at Histamine H2 receptor; in assay [1]; in assay [2]; in assay [3]; in assay [4]) was “Not Active” in each case. Further, in assay [1], the Ki entry is given as “Not Active”.

For `CC(=O)OCC(=O)[C@@]1(O)CC[C@H]2[C@@H]3CCC4=CC(=O)CC[C@]4(C)[C@H]3C(=O)C[C@@]21C` [CORTISONE ACETATE], the IC50 result (against Endothelin-1 receptor; at Histamine H2 receptor; in assay [1]; in assay [2]; in assay [3]; in assay [4]) was “Not Active” each time. In assay [1], the Ki entry is “Not Active”.

As for `O=c1ccc2ccccc2o1` [COUMARIN], the IC50 entry (against Endothelin-1 receptor; at Histamine H2 receptor; in assay [1]; in assay [2]; in assay [3]; in assay [4]) was “Not Active” each time. In addition, the Ki entry in assay [1] is on record as “Not Active”.

Consider `C[C@@H]1C[C@@H]([C@H](O)CC2CC(=O)NC(=O)C2)C(=O)[C@@H](C)C1` [CYCLOHEXIMIDE], for which the IC50 result (at Endothelin-1 receptor; on Histamine H2 receptor; in assay [1]; in assay [2]; in assay [3]; in assay [4]) was “Not Active” in each case. Moreover, the Ki result in assay [1] is given as “Not Active”.

As for `C/C=C/C[C@@H](C)[C@@H](O)[C@H]1C(=O)N[C@@H](CC)C(=O)N(C)CC(=O)N(C)[C@@H](CC(C)C)C(=O)N[C@@H](C(C)C)C(=O)N(C)[C@@H](CC(C)C)C(=O)N[C@@H](C)C(=O)N[C@H](C)C(=O)N(C)[C@@H](CC(C)C)C(=O)N(C)[C@@H](CC(C)C)C(=O)N(C)[C@@H](C(C)C)C(=O)N1C` [CYCLOSPORINE], the IC50 entry (at Endothelin-1 receptor; at Histamine H2 receptor; in assay [1]; in assay [2]; in assay [3]; in assay [4]) was “Not Active” each time. Moreover, the Ki result in assay [1] is “Not Active”.

`CN(C)/N=N/c1[nH]cnc1C(N)=O` [DACARBAZINE]: the IC50 result (on Endothelin-1 receptor; against Histamine H2 receptor; in assay [1]; in assay [2]; in assay [3]; in assay [4]) was “Not Active” in each case. In assay [1], the Ki result is given as “Not Active”.

For the compound `COc1ccc2c(c1)[C@]13CCCC[C@@H]1[C@H](C2)N(C)CC3` [DEXTROMETHORPHAN], the IC50 entry (against Endothelin-1 receptor; at Histamine H2 receptor; in assay [1]; in assay [2]; in assay [3]; in assay [4]) was “Not Active” in each case. Also, the Ki entry in assay [1] was “Not Active”.

On to `CC(=O)Nc1c(I)c(NC(C)=O)c(I)c(C(=O)O)c1I` [DIATRIZOIC ACID], for which the IC50 entry (against Endothelin-1 receptor; against Histamine H2 receptor; in assay [1]; in assay [2]; in assay [3]; in assay [4]) was “Not Active” throughout. For the same compound, the Ki result in assay [1] was “Not Active”.

For `COP(=O)(OC)OC=C(Cl)Cl` [DICHLORVOS], the IC50 entry (against Endothelin-1 receptor; against Histamine H2 receptor; in assay [1]; in assay [2]; in assay [3]; in assay [4]) was “Not Active” throughout. Further, in assay [1], the Ki entry is given as “Not Active”.

`O=C(O)Cc1ccccc1Nc1c(Cl)cccc1Cl` [DICLOFENAC]: the IC50 result (at Endothelin-1 receptor; at Histamine H2 receptor; in assay [1]; in assay [2]; in assay [3]; in assay [4]) was “Not Active” throughout. Besides, the Ki result in assay [1] is “Not Active”.

Turning to `C[C@H]1O[C@@H](O[C@H]2[C@@H](O)C[C@H](O[C@H]3[C@@H](O)C[C@H](O[C@H]4CC[C@@]5(C)[C@H](CC[C@@H]6[C@@H]5CC[C@]5(C)[C@@H](C7=CC(=O)OC7)CC[C@]65O)C4)O[C@@H]3C)O[C@@H]2C)C[C@H](O)[C@@H]1O` [DIGITOXIN], the IC50 result (at Endothelin-1 receptor; at Histamine H2 receptor; in assay [1]; in assay [2]; in assay [3]; in assay [4]) was “Not Active” each time. In addition, the Ki entry in assay [1] is recorded as “Not Active”.

For the compound `CCN1CC(CCN2CCOCC2)C(c2ccccc2)(c2ccccc2)C1=O` (stereo not given) [DOXAPRAM], the IC50 result (at Endothelin-1 receptor; on Histamine H2 receptor; in assay [1]; in assay [2]; in assay [3]; in assay [4]) was “Not Active” throughout. Moreover, in assay [1], the Ki entry was “Not Active”.

Turning to `Cn1c(=O)c2c(ncn2CC2OCCO2)n(C)c1=O` [DOXOFYLLINE], the IC50 result (on Endothelin-1 receptor; on Histamine H2 receptor; in assay [1]; in assay [2]; in assay [3]; in assay [4]) was “Not Active” each time. In addition, the Ki result in assay [1] was “Not Active”.

Usually pIC50 stands for the negative decadic logarithm of the IC50, by convention in mol/L. In the case of `COc1cccc2c1C(=O)c1c(O)c3c(c(O)c1C2=O)C[C@@](O)(C(=O)CO)C[C@@H]3O[C@H]1C[C@H](N)[C@H](O)[C@H](C)O1` [DOXORUBICIN], the IC50 entry (against Endothelin-1 receptor; on Histamine H2 receptor; in assay [1]; in assay [2]; in assay [3]) was “Not Active” each time. In assay [1], the Ki result is on record as “Not Active”. Besides, the pIC50 in assay [4] was 5.29.

Turning to `COc1cccc2c1C(=O)c1c(O)c3c(c(O)c1C2=O)C[C@@](O)(C(=O)CO)C[C@@H]3O[C@H]1C[C@H](N)[C@@H](O)[C@H](C)O1` [EPIRUBICIN], the IC50 result (against Endothelin-1 receptor; against Histamine H2 receptor; in assay [1]; in assay [2]; in assay [3]) was “Not Active” each time. In addition, the Ki entry in assay [1] is recorded as “Not Active”. For the same compound, the pIC50 in assay [4] (read-out: IC50) is 5.29.
